Data from US10836763B2, “5 to 7 membered heterocyclic amides as JAK inhibitors” (priority 2018, dated 2020).

Key:
Tyk2 = Tyk2 (Homo sapiens (Human), UniProt P29597); experiment: Biochemical JAK kinase assay (LanthaScreen), Tyk2
Method: (§1) Assay 1: Biochemical JAK Kinase Assays
(§2) A panel of four LanthaScreen JAK biochemical assays (JAK1, 2, 3 and Tyk2) were carried in a common kinase reaction buffer (50 mM HEPES, pH 7.5, 0.01% Brij-35, 10 mM MgCl2, and 1 mM EGTA). Recombinant GST-tagged JAK enzymes and a GFP-tagged STAT1 peptide substrate were obtained from Life Technologies.
(§3) Serially diluted compounds were pre-incubated with each of the four JAK enzymes and the substrate in white 384-well microplates (Corning) at ambient temperature for 1 h. ATP was subsequently added to initiate the kinase reactions in 10 μL total volume, with 1% DMSO. […] Kinase reactions were allowed to proceed for 1 hour at ambient temperature before a 10 μL preparation of EDTA (10 mM final concentration) and Tb-anti-pSTAT1 (pTyr701) antibody (Life Technologies, 2 nM final concentration) in TR-FRET dilution buffer (Life Technologies) was added. The plates were allowed to incubate at ambient temperature for 1 h before being read on the EnVision reader (Perkin Elmer). Emission ratio signals (520 nm/495 nm) were recorded and utilized to calculate the percent inhibition values based on DMSO and background controls.
(§4) For dose-response analysis, percent inhibition data were plotted vs. compound concentrations, and IC50 values were determined from a 4-parameter robust fit model with the Prism software (GraphPad Software). Results were expressed as pIC50 (negative logarithm of IC50) and subsequently converted to pKi (negative logarithm of dissociation constant, Ki) using the Cheng-Prusoff equation.

JAK2 = JAK2 (Homo sapiens (Human), UniProt O60674); experiment: Biochemical JAK kinase assay (LanthaScreen), JAK2
Chain of JAK2 (O60674 whole entry): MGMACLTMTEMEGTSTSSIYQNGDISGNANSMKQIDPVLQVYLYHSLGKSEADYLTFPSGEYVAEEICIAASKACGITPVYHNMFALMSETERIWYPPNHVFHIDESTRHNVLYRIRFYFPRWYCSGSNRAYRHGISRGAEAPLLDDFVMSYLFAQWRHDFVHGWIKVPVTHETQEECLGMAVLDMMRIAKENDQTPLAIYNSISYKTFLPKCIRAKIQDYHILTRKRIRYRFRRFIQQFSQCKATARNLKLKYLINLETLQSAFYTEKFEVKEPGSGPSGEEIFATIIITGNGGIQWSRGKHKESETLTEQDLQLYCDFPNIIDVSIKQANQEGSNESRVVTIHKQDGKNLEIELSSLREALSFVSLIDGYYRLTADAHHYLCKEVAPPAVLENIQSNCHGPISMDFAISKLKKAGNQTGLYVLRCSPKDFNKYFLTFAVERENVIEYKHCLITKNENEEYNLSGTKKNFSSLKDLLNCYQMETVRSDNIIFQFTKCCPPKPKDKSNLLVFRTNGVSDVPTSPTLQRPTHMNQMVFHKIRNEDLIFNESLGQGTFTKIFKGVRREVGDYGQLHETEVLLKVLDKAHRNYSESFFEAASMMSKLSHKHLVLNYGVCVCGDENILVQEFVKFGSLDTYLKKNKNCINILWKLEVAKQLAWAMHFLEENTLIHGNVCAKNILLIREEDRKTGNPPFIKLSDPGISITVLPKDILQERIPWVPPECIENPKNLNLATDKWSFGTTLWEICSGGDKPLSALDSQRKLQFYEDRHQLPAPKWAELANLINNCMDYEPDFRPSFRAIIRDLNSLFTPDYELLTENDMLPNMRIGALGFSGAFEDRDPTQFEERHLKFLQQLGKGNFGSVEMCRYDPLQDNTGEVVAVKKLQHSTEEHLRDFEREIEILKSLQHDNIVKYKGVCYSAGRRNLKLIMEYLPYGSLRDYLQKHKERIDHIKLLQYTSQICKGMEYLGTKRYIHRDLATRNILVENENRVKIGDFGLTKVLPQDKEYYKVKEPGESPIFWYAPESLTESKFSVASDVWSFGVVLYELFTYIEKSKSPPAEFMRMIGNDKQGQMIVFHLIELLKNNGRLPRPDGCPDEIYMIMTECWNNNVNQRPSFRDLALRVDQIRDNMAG
Method: as §1, §2, §3, §4

Lung S9 metabolism = type: in vitro ADME, human; details: for Compound Remaining at 60 min (%) / microsomal CLint at 1 µM: human lung S9, 1 μM compound, 1 mg/mL S9 protein, NADPH and PAPS; for microsomal CLint at 1 µM: lung S9 fraction, pH 7.4, read-out: Clearance; for Sulfate Appearance: qualitative, O-sulfate metabolite peak in human lung S9
Method: Assay 5: Lung S9 Metabolism […] Lung S9 fractions from human (lot 1410245) were purchased from XenoTech LLC (Lenexa, Kans.). NADPH (Sigma Aldrich, N1630) and 3-phosphoadenosine 5-phosphosulfate (PAPS) (Sigma Aldrich, A1651) were purchased from Sigma Aldrich (St. Louis, Mo.). Acetonitrile and water were obtained from VWR (Radnor, Pa.) and were of HPLC grade or better. Raloxifene and formic acid was purchased from Sigma Aldrich (St. Louis, Mo.). Lung S9 incubations were performed in a water bath at 37° C. in a 96-well polypropylene plate. […] All samples were centrifuged at 2250 g for 10 minutes at 5° C. Supernatant (50 μL) was taken from the centrifuged samples and diluted into 100 μL HPLC water containing internal standard. […] Mobile Phase A consisted of Water+0.2% formic acid and Mobile Phase B consisted of acetonitrile+0.2% formic acid. Peak integration was accomplished using Gubbs GMSU software (Gubbs Inc., Alpharetta, Ga.). For each sample, peak area ratios were calculated by dividing the analyte peak area by the internal standard peak area. […] Determination of sulfate metabolite formation was made qualitatively by observation of early-eluting peak in the parent ion channel which, based on historical internal data, corresponded to the O-sulfate metabolite of each parent compound.

[1] = tested on: IL-2 stimulated STAT5 phosphorylation in Tall-1 human T cell line; experiment: Inhibition of IL-2 stimulated pSTAT5 in Tall-1 T cells; type: cell-based; details: TALL-1, 0.5 h, IL-2 300 ng/mL, 30 min, pSTAT5 AlphaLisa, read-out: Tall-1 pIC50 (converted)
Method: Assay 2: Inhibition of IL-2 Stimulated pSTAT5 in Tall-1 T Cells
The potency of test compounds for inhibition of interleukin-2 (IL-2) stimulated STAT5 phosphorylation was measured in the Tall-1 human T cell line (DSMZ) using AlphaLisa.
Phosphorylated STAT5 was measured via the AlphaLISA SureFire Ultra pSTAT5 (Tyr694/699) kit (PerkinElmer).
Compounds were serially diluted in DMSO and dispensed acoustically to empty wells. Assay media (phenol red-free DMEM (Life Technologies) supplemented with 10% FBS (ATCC)) was dispensed (4 μL/well) and plates shaken at 900 rpm for 10 mins. Cells were seeded at 45,000 cells/well in assay media (4 μL/well), and incubated at 37° C., 5% CO2 for 1 hour, followed by the addition of IL-2 (R&D Systems; final concentration 300 ng/mL) in pre-warmed assay media (4 μL) for 30 minutes. […] The lysate was shaken at 900 rpm for 10 minutes at room temperature (RT). Phosphorylated STAT5 was measured via the pSTAT5 AlphaLisa kit (PerkinElmer). Freshly prepared acceptor bead mixture was dispensed onto lysate (5 μL) under green filtered <100 lux light. Plates were shaken at 900 rpm for 2 mins, briefly spun down, and incubated for 2 hrs at RT in the dark. Donor beads were dispensed (5 μL) under green filtered <100 lux light. Plates were shaken at 900 rpm for 2 minutes, briefly spun down, and incubated overnight at RT in the dark. Luminescence was measured with excitation at 689 nm and emission at 570 nm using an EnVision plate reader (PerkinElmer) under green filtered <100 lux light.
To determine the inhibitory potency of test compounds in response to IL-2, the average emission intensity of beads bound to pSTAT5 was measured in a human T cell line. IC50 values were determined from analysis of the inhibition curves of signal intensity versus compound concentration. Data are expressed as pIC50 (negative decadic logarithm IC50) values (mean±standard deviation).

[2] = tested on: TSLP-evoked TARC release in human peripheral blood mononuclear cells; experiment: Inhibition of TSLP-evoked TARC release in human peripheral blood mononuclear cells; type: cell-based; details: PBMC from 3 to 5 donors, TSLP 10 ng/mL, 48 hours, TARC ELISA, read-out: pIC50 ± st. dev., inhibition of TSLP-evoked TARC release (converted)
Text: Assay 4: Inhibition of TSLP-Evoked TARC Release in Human Peripheral Blood Mononuclear Cells
Thymic stromal lymphopoietin (TSLP) and thymus and activation-regulated chemokine (TARC) are overexpressed in asthmatic airways, and correlate with disease severity. In the lungs, TSLP may be released by bronchial epithelial cells in response to allergens and viral infections. TSLP signals through an IL-7Rα/TSLPR heterodimer found in a broad range of tissues and cell types, including epithelial cells, endothelial cells, neutrophils, macrophages, and mast cells. The binding of TSLP to its receptor induces a conformational change that activates JAK1 and JAK2 to phosphorylate various transcription factors, including STAT3 and STAT5. In immune cells, this triggers a cascade of intracellular events that result in cell proliferation, anti-apoptosis, dendritic cell migration, and production of Th2 cytokines and chemokines. In peripheral blood mononuclear cells (PBMC), TSLP has a proinflammatory effect by activating myeloid dendritic cells to attract and stimulate T cells, a process mediated by the chemoattractant TARC.
The potencies of the test compounds were measured for inhibition of TARC release.
PBMC aliquots (previously isolated from whole blood and frozen in aliquots at −80° C.) from 3 to 5 donors were thawed at 37° C. and added dropwise to 40 mL pre-warmed, sterile-filtered, complete RPMI media in 50 mL Falcon tubes. Cells were pelleted and resuspended in complete media at 2.24×10^6 cells/mL. Cells were seeded at […] (190,000 cells) per well in a tissue culture treated 96-well flat bottom microplate. Cells were allowed to rest for 1 hour at 37° C. with 5% CO2.
Compounds were received as 10 mM stock solutions in DMSO. 3.7-fold serial dilutions were performed to generate 9 concentrations of test compound in DMSO at 300× the final assay test concentration. […] After the 1 hour rest period, 95 µL of 2× compound was added to each well of PBMC, for a final assay concentration range of 33.33 μM to […]. 95 μL of 0.2% DMSO in complete media was added to the untreated control wells. Cells were pre-treated with compound for 1 hour at 37° C. with 5% CO2 prior to stimulation.
Recombinant human TSLP protein was reconstituted at 10 μg/mL in sterile DPBS with 0.1% BSA and stored in aliquots at −20° C. Immediately prior to use, an aliquot was thawed and prepared at 20× the final assay concentration in complete media. 10 μL of 20×TSLP was added to each well of PBMC, for a final assay concentration of 10 ng/mL. 10 μL of complete media was added to the unstimulated control wells. Cells were stimulated in the presence of compound for 48 hours at 37° C. with 5% CO2.
Following stimulation, the cell culture supernatants were harvested and TARC levels were detected by enzyme-linked immunosorbent assay (ELISA), using Human CCL17/TARC Quantikine ELISA Kit (R&D Systems # DDN00) according to the manufacturer's instructions.
For dose response analysis, the log [test compound (M)] was plotted versus the percent response values for each donor, and IC50 values were determined using a nonlinear regression analysis with GraphPad Prism Software using the 4-parameter sigmoidal dose-response algorithm with variable slope. Data are expressed as mean pIC50 (negative decadic logarithm IC50) values calculated from pIC50 values of individual donors and rounded to one decimal place.

JAK1 = JAK1 (Homo sapiens (Human), UniProt P23458); experiment: Co-crystal structure with JAK1; details: resolution of 2.28 Å
Chain of JAK1 (P23458 whole entry): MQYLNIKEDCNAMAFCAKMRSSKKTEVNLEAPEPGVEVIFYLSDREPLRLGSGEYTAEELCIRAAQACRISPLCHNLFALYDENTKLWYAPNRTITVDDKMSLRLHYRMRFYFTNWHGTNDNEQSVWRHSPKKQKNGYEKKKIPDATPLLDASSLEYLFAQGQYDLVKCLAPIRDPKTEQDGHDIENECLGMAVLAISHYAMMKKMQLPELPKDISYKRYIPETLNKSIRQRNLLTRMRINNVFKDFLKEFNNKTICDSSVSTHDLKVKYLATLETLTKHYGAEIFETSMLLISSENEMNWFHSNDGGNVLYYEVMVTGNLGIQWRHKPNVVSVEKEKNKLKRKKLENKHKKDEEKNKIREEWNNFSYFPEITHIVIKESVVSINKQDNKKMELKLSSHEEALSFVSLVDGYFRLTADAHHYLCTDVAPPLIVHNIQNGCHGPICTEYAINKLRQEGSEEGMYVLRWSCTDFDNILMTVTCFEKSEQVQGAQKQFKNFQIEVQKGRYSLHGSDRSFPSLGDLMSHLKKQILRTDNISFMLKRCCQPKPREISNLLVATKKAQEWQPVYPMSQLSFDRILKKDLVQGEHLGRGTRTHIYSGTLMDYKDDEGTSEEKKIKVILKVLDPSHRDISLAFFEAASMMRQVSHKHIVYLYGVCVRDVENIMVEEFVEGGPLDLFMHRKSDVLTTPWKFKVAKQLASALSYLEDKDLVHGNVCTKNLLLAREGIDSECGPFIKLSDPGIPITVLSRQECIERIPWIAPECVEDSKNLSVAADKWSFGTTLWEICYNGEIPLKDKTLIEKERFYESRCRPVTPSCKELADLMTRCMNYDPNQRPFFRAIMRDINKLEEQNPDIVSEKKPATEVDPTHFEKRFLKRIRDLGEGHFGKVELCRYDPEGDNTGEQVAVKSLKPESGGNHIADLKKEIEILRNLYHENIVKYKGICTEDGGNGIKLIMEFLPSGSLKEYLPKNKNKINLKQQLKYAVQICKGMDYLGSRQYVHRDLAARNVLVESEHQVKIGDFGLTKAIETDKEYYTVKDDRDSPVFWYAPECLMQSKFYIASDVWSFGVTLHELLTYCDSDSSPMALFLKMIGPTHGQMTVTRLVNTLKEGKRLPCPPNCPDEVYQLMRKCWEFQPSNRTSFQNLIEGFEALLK
Text: A co-crystal structure was obtained of compound D-1 bound to human JAK1 at a resolution of 2.28 Å. […] Seven specific hydrogen bonding interactions were identified based upon a distance of 3.5 Å or less between donor and acceptor atoms. Of particular note, a hydrogen bonding interaction was identified between the carbonyl of the exocyclic amide of compound D-1 and the sidechain of Arg879 of JAK1. A similar interaction can be expected for the compounds of the invention.

Chain of Tyk2 (P29597 whole entry): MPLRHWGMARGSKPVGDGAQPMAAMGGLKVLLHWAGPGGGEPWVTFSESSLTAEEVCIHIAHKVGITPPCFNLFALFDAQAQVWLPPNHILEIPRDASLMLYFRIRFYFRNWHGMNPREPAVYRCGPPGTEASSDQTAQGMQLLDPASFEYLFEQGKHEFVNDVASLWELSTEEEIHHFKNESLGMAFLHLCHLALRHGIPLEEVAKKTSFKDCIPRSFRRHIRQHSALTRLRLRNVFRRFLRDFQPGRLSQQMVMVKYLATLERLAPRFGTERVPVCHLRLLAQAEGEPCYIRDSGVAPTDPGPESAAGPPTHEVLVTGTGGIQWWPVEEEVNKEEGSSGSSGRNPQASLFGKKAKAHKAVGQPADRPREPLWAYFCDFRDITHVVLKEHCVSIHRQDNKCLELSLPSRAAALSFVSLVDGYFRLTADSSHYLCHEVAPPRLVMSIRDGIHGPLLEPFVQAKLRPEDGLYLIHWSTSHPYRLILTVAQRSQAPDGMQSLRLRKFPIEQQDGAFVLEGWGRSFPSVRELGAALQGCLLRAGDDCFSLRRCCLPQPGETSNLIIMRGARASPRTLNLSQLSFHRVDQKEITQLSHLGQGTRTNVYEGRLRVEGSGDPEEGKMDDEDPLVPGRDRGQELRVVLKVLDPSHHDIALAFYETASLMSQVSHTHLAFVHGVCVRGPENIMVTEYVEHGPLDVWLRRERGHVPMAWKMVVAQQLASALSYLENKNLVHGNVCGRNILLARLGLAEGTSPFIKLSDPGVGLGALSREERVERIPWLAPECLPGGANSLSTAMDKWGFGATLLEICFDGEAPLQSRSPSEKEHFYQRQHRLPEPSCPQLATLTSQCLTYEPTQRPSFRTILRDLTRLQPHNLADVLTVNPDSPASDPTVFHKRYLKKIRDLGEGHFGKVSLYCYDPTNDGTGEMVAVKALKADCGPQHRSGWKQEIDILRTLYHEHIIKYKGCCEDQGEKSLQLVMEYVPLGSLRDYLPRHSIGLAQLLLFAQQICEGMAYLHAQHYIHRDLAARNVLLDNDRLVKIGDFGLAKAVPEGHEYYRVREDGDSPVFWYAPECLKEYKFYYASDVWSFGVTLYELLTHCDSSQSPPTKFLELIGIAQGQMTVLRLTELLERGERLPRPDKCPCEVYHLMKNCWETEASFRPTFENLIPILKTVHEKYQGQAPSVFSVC

## CCc1cc(O)ccc1-c1ccc2c(-c3nc4c([nH]3)CN(C)[C@H](C(=O)N3CCN(C)C[C@@H]3C)C4)n[nH]c2c1 [Compound 3, ((S)-2,4-dimethylpiperazin-1-yl)((S)-2-(6-(2-ethyl-4-hydroxyphenyl)-1H-indazol-3-yl)-5-methyl-4,5,6,7-tetrahydro-3H-imidazo[4,5-c]pyridin-6-yl)methanone]
Tyk2
  Tyk2 pKi: 9.3
JAK2
  JAK2 pKi: 10.4
Lung S9 metabolism
  Compound Remaining at 60 min (%): 86%
  microsomal CLint at 1 µM: 2.6 µL/min/mg
  Sulfate Appearance: Yes

## CCc1cc(O)c(F)cc1-c1ccc2c(-c3nc4c([nH]3)CN(C(C)C)[C@H](C(=O)N3CC[C@H](N(C)C)C3)C4)n[nH]c2c1 [Compound C-6, reference compound]
[1]
  IC50: 2.51 nM
[2]
  IC50: 158 nM
Lung S9 metabolism
  Compound Remaining at 60 min (%): 5%
  microsomal CLint at 1 µM: 51.4 µL/min/mg
  Sulfate Appearance: Yes

## CCc1cc(O)c(F)cc1-c1ccc2c(-c3nc4c([nH]3)CN(C(C)C)[C@H](C(=O)N3CC(N(C)C)C3)C4)n[nH]c2c1 [Compound D-1, (S)-(3-(dimethylamino)azetidin-1-yl)(2-(6-(2-ethyl-5-fluoro-4-hydroxyphenyl)-1H-indazol-3-yl)-5-isopropyl-4,5,6,7-tetrahydro-3H-imidazo[4,5-c]pyridin-6-yl)methanone]
JAK1
  binding site in co-crystal structure: bind in the ATP binding site
